Laboratory results as given in patent publication US6852526B2, “Transdermal assay with magnetic clamp” (Transform Pharmaceuticals, Inc., priority 2000, dated 2005).
Values joined by “and” are separate entries in the source; they are usually repeats but may differ in a detail not shown here. Equal entries are not always repeated. Structures can show the parent of a compound that is named as a salt. Where two headings read alike, the source gives them in different places.

What was measured:
[1] = Protocol: Human cadaver skin epidermis was prepared by first separating skin from the underlying fat and then separating the epidermis by heat treatment at 60° C. for 90 seconds using standard techniques.
An apparatus as described in FIG. 6 was assembled, wherein each plate in the apparatus was a rectangular shape having dimensions of 5.030″ (127.76 mm) by 3.365″ (85.48 mm). The apparatus was assembled by first placing a ⅛″ (3.175 mm) thick clear polycarbonate spacer plate 620 on top of an aluminum base plate 610 and aligning screw holes 622 in the spacer plate with screw holes 612 in the base plate. Thereafter, a 4×4 sample array was created on spacer plate 620, as described in Table 2 below:
Punched samples were placed on spacer plate 620 in the 4×4 array of Table 2 one at a time, and the location of each array sample was selected using guide marks 614 on base plate 610 to ensure that each array sample was placed such that it aligned with a donor reservoir 654 in reservoir plate 650. There were 96, 0.020″ (0.508 mm) deep, guide marks 614 on base plate 610, arranged in a 12×8 array which was located 11.24 mm in from the edges of the long sides of base plate 610, and 14.38 mm in from the edges of its short sides. At the time of placement, the release liner on each sample was removed to expose the drug reservoir/adhesive of the sample.
Array locations B3, C1, and D3 were controls without any samples in order to determine the potential impact of lateral diffusion on transdermal transport measurements with this apparatus.
Once all the samples were placed in the array, the piece of heat-stripped human cadaver skin, the size of which was larger than the array of samples, was gently and slowly placed over the samples so as to avoid any air pockets between the skin and the samples. The skin was oriented with the stratum corneum next to the samples. Then, a ¼″ (6.35 mm) thick clear polycarbonate reservoir plate 650 having an 4×4 array of ¼″ (6.35 mm) diameter donor reservoirs 654 was placed over the skin such that all of screw holes 652 on reservoir plate 650 were aligned with the corresponding screw holes 622 of spacer plate 620.
The resulting assembled apparatus 600 was clamped together by sliding a shoulder screw 660 with threads 622 through aligned screw holes 652 at each of the four corners of the assembled apparatus, and tightening each shoulder screw 660 so as to form a seal between reservoir plate 650 and the skin.
[…] of Dulbecco's Phosphate Buffered Saline (PBS) was added to each donor reservoir in the array as the reservoir medium.
After 2 hours, a […] test aliquot of reservoir medium was removed from each donor reservoir 654, and at that time, an additional […] of PBS was added into each donor reservoir 654. Each of the 2-hour test aliquots was placed in an HPLC vial and diluted to […] by addition of […] of 50:50 (v/v) 50 mM potassium phosphate (adjusted to pH 3.0 with phosphoric acid) and acetonitrile.
The foregoing process was repeated at 3 hours, 4 hours, and 5 hours.
The components of the HPLC system used to analyze the test aliquots were a Waters 2790 Separations Module, a Waters Photodiode Array Detector Model 996, and Waters Millennium 32 v3.2 Chromatography Software (Waters Corp., Milford Mass.).
The HPLC analysis was performed using a Platinum EPS C18 column (Alltech Associates, Muskegan, Mich.) with dimensions of 250 mm×4.6 mm and a […] particle size. The mobile phase was 50:50 (v/v) 50 mM potassium phosphate (adjusted to pH 3.0 with phosphoric acid): acetonitrile, with a flow rate of 1.0 ml/minute. Detection was performed by measuring UV absorbance at a wavelength of 260 nm. The run time was 4 minutes. Injection volume was […]. Column temperature was ambient.

[2] = passive experiments; cited from earlier work
[3] = cited from earlier work
[4] = empty control location (B3, C1, D3), no sample: lateral diffusion, 2 hour
[5] = empty control location (B3, C1, D3), no sample: lateral diffusion, 3 hour
[6] = empty control location (B3, C1, D3), no sample: lateral diffusion, 4 hour
[7] = sample* (A4, D1): drug reservoir came off the backing with the release liner, 2 hour
[8] = sample* (A4, D1): drug reservoir came off the backing with the release liner, 3 hour
[9] = sample* (A4, D1): drug reservoir came off the backing with the release liner, 4 hour
[10] = sample* (A4, D1): drug reservoir came off the backing with the release liner, 5 hour

CN1CCCC1c1cccnc1 (centres unmarked) [Nicotine, nicotine]
transdermal movement of the active component ([1]; detected in donor reservoirs over NICODERM CQ samples): crossed the skin barrier
lateral diffusion to adjacent wells ([1]; donor reservoirs not located over samples): sufficiently slower than direct transdermal movement
Nicotine Concentration Of Diluted Test Aliquots [1, 4]: 2.2 mg/mL and 1.5 mg/mL and 2.6 mg/mL
Nicotine Concentration Of Original Test Aliquots [1, 4]: 22.0 mg/mL and 15.0 mg/mL and 26.0 mg/mL
Nicotine Accumulation in donor reservoir ([1]; empty control location (B3, C1, D3), no sample: lateral diffusion, 2 hr): 1.650 mg and 1.125 mg and 1.950 mg
Nicotine Concentration Of Diluted Test Aliquots [1, 5]: 2.5 mg/mL and 3.2 mg/mL and 4.0 mg/mL
Nicotine Concentration Of Original Test Aliquots [1, 5]: 25.0 mg/mL and 32.0 mg/mL and 40.0 mg/mL
Nicotine Accumulation in donor reservoir ([1]; empty control location (B3, C1, D3), no sample: lateral diffusion, 3 hr): 4.663 mg and 3.150 mg and 4.300 mg
Nicotine Concentration Of Diluted Test Aliquots [1, 6]: 4.8 mg/mL and 2.7 mg/mL and 4.2 mg/mL
Nicotine Concentration Of Original Test Aliquots [1, 6]: 48.0 mg/mL and 27.0 mg/mL and 42.0 mg/mL
Nicotine Accumulation in donor reservoir ([1]; empty control location (B3, C1, D3), no sample: lateral diffusion, 4 hr): 7.075 mg and 4.375 mg and 6.450 mg
Nicotine Accumulation in donor reservoir ([1]; empty control location (B3, C1, D3), no sample: lateral diffusion, 5 hr): 10.975 mg and 5.650 mg and 8.925 mg
Nicotine Concentration Of Diluted Test Aliquots [1, 7]: 1.0 mg/mL and 1.1 mg/mL
Nicotine Concentration Of Original Test Aliquots [1, 7]: 10.0 mg/mL and 11.0 mg/mL
Nicotine Accumulation in donor reservoir ([1]; sample* (A4, D1): drug reservoir came off the backing with the release liner, 2 hr): 0.825 mg and 0.750 mg
Nicotine Concentration Of Diluted Test Aliquots [1, 8]: 1.2 mg/mL and 1.4 mg/mL
Nicotine Concentration Of Original Test Aliquots [1, 8]: 12.0 mg/mL and 14.0 mg/mL
Nicotine Accumulation in donor reservoir ([1]; sample* (A4, D1): drug reservoir came off the backing with the release liner, 3 hr): 1.600 mg and 1.400 mg
Nicotine Concentration Of Diluted Test Aliquots [1, 9]: 1.4 mg/mL and 1.6 mg/mL
Nicotine Concentration Of Original Test Aliquots [1, 9]: 14.0 mg/mL and 16.0 mg/mL
Nicotine Accumulation in donor reservoir ([1]; sample* (A4, D1): drug reservoir came off the backing with the release liner, 4 hr): 2.450 mg and 2.150 mg
Nicotine Concentration Of Diluted Test Aliquots [1, 10]: 1.6 mg/mL and 1.8 mg/mL
Nicotine Concentration Of Original Test Aliquots [1, 10]: 16.0 mg/mL and 18.0 mg/mL
Nicotine Accumulation in donor reservoir ([1]; sample* (A4, D1): drug reservoir came off the backing with the release liner, 5 hr): 3.400 mg and 3.000 mg

CCCCCCCC/C=C\CCCCCCCC(=O)OCC(COC(=O)CCCCCCC/C=C\CCCCCCCC)OC(=O)CCCCCCC/C=C\CCCCCCCC [glycerol trioleate]
corticosterone flux enhancement relative to the passive flux from PBS alone [2]: 0.8

COC1=CC(=O)C[C@@H](C)[C@]12Oc1c(Cl)c(OC)cc(OC)c1C2=O [griseofulvin]
Properties: absorption / water solubility [3]: Poor absorption due to its low water

CCCCCCCCCCCCCC(=O)OC(C)C [isopropyl myristate]
corticosterone flux enhancement relative to the passive flux from PBS alone [2]: 5

CC(=O)O[C@H]1C(=O)[C@@]2(C)[C@H]([C@H](OC(=O)c3ccccc3)[C@]3(O)C[C@H](OC(=O)[C@H](O)[C@@H](NC(=O)c4ccccc4)c4ccccc4)C(C)=C1C3(C)C)[C@]1(OC(C)=O)CO[C@@H]1C[C@@H]2O [paclitaxel]
Properties: absorption / water solubility [3]: Poor absorption due to its low water

CC(C)c1nc(CN(C)C(=O)N[C@H](C(=O)N[C@@H](Cc2ccccc2)C[C@H](O)[C@H](Cc2ccccc2)NC(=O)OCc2cncs2)C(C)C)cs1 [ritonavir]
Properties: polymorphic stability ([3]; shipping and storage): Can undergo a polymorphic shift during

CC(C)(C)NC(=O)[C@@H]1C[C@@H]2CCCC[C@@H]2CN1C[C@@H](O)[C@H](Cc1ccccc1)NC(=O)[C@H](CC(N)=O)NC(=O)c1ccc2ccccc2n1 [saquinavir]
Properties: absorption / water solubility [3]: Poor absorption due to its low water

CCCc1nn(C)c2c(=O)[nH]c(-c3cc(S(=O)(=O)N4CCN(C)CC4)ccc3OCC)nc12 [sildenafil citrate]
Properties: absorption / water solubility [3]: Poor absorption due to its low water

polyethylene glycol 200 dilaurate
corticosterone flux enhancement relative to the passive flux from PBS alone [2]: 2
